Measured values published in US20090075937A1, “LHRH ANTAGONISTS FOR THE TREATMENT OF LOWER URINARY TRACT SYMPTOMS” (AETERNA ZENTARIS GmbH, priority 2007, published 2009).

How the values were obtained:
[1] = tested on: study subjects; assay: Peroral treatment of study subjects with tetrahydrocarbazole compounds: nocturia frequency, urgency to urinate, frequency of emptying (Examples 4-9); format: in vivo, human; details: 50 to 150 mg perorally daily as a single dose, schemes of 6 weeks to 6 months
[2] = tested on: study subjects; assay: Peroral treatment of study subjects with tetrahydrocarbazole compounds: chemical (hormonal) castration (Examples 4-9); format: in vivo, human; details: 50 to 150 mg perorally daily as a single dose, schemes of 6 weeks to 6 months
Protocol: In the course of the present invention, the terms “hormone” and “hormonal” within for instance the terms “hormone castration”, “chemical (hormonal) castration” or “hormone withdrawal symptoms” refer to follicle stimulating hormone (FSH), luteinizing hormone (LH) and/or testosterone. Preferably, chemical (hormonal) castration is a testosterone castration and refers to a testosterone blood level of equal or below 1.2 ng/mL, preferably 0.5 ng/mL.
Study subjects are treated with compound (76) with the following doses according to the following administration schemes: • in a 3 month trial, 75 mg or 150 mg compound (76) administered perorally daily as a single dose on day 2-7 of the menstrual cycle • in a 3 months trial, 75 mg, 100 mg or 150 mg compound (76) administered perorally daily as a single dose on day 2-7 of the menstrual cycle followed by a 3 months treatment-free period • in a 6 months trial, 75 mg or 150 mg compound (76) administered perorally daily as a single dose • 50 mg or 150 mg per compound (76) administered daily as a single dose over 42 days (6 weeks)
Study subjects are treated with compound (68) with the following doses according to the following administration schemes: • in a 3 month trial, 75 mg or 150 mg compound (68) administered perorally daily as a single dose on day 2-7 of the menstrual cycle • in a 3 months trial, 75 mg, 100 mg or 150 mg compound (68) administered perorally daily as a single dose on day 2-7 of the menstrual cycle followed by a 3 months treatment-free period • in a 6 months trial, 75 mg or 150 mg compound (68) administered perorally daily as a single dose • 50 mg or 150 mg per compound (68) administered daily as a single dose over 42 days (6 weeks)
Study subjects are treated with compound 36 with the following doses according to the following administration schemes: • in a 3 month trial, 75 mg or 150 mg compound 36 administered perorally daily as a single dose on day 2-7 of the menstrual cycle • in a 3 months trial, 75 mg, 100 mg or 150 mg compound 36 administered perorally daily as a single dose on day 2-7 of the menstrual cycle followed by a 3 months treatment-free period • in a 6 months trial, 75 mg or 150 mg compound 36 administered perorally daily as a single dose • 50 mg or 150 mg per compound 36 administered daily as a single dose over 42 days (6 weeks)
Study subjects are treated with compound 37 with the following doses according to the following administration schemes: • in a 3 month trial, 75 mg or 150 mg compound 37 administered perorally daily as a single dose on day 2-7 of the menstrual cycle • in a 3 months trial, 75 mg, 100 mg or 150 mg compound 37 administered perorally daily as a single dose on day 2-7 of the menstrual cycle followed by a 3 months treatment-free period • in a 6 months trial, 75 mg or 150 mg compound 37 administered perorally daily as a single dose • 50 mg or 150 mg per compound 37 administered daily as a single dose over 42 days (6 weeks)
Study subjects are treated with compound 52 with the following doses according to the following administration schemes: • in a 3 month trial, 75 mg or 150 mg compound 52 administered perorally daily as a single dose on day 2-7 of the menstrual cycle • in a 3 months trial, 75 mg, 100 mg or 150 mg compound 52 administered perorally daily as a single dose on day 2-7 of the menstrual cycle followed by a 3 months treatment-free period • in a 6 months trial, 75 mg or 150 mg compound 52 administered perorally daily as a single dose • 50 mg or 150 mg per compound 52 administered daily as a single dose over 42 days (6 weeks)

Row | Structure (SMILES) | nocturia frequency, urgency to urinate and/or frequency of emptying compared to placebo [1] | chemical (hormonal) castration [2]
1 | CCC(C)[C@H](NC(=O)Cc1ccccc1F)C(=O)N[C@]1(C(=O)N[C@H](C(N)=S)C(C)CC)CCc2[nH]c3c(Cl)cc(F)cc3c2C1 (stereo partly drawn) [compound (68), (R)-8-chloro-6-fluoro-3-{(S)-2-[2-(2-fluorophenyl)acetylamino]-3-methyl-pentanoylamino}-2,3,4,9-tetrahydro-1H-carbazole-3-carboxylic acid ((S)-2-methyl-1-thiocarbamoylbutyl)amide] | decrease | successfully prevented
2 | CCC(C)[C@H](NC(=O)Cc1ccccc1F)C(=O)N[C@]1(C(=O)N[C@H](C(=S)NCC2CCOCC2)C(C)CC)CCc2[nH]c3c(C(F)(F)F)cccc3c2C1 (stereo partly drawn) [Compound 52, (R)-3-{(S)-2-[2-(2-Fluoro-phenyl)-acetylamino]-3-methyl-pentanoylamino}-8-trifluoromethyl-2,3,4,9-tetrahydro-1H-carbazole-3-carboxylic acid {(S)-2-methyl-1-[K(tetrahydro-pyran-4-ylmethyl)-thiocarbamoyl]-butyl}-amide] | decrease | successfully prevented
3 | CCC(C)[C@H](NC(=O)Cc1ccccc1F)C(=O)N[C@]1(C(=O)N[C@H](C(N)=S)C(C)CC)CCc2[nH]c3c(C(F)(F)F)cccc3c2C1 (stereo partly drawn) [compound (76), (R)-3-{(S)-2-[2-(2-fluorophenyl)acetylamino]-3-methyl-pentanoylamino}-8-trifluoromethyl-2,3,4,9-tetrahydro-1H-carbazole-3-carboxylic acid ((S)-2-methyl-1-thiocarbamoylbutyl)amide] | decrease | successfully prevented
4 | CCC(C)[C@H](NC(=O)Cc1ccccc1F)C(=O)N[C@]1(C(=O)N[C@H](C(=O)NCN2CCOCC2)C(C)CC)CCc2[nH]c3c(C(F)(F)F)cccc3c2C1 (stereo partly drawn) [Compound 36, (R)-3-{(S)-2-[2-(2-Fluoro-phenyl)-acetylamino]-3-methyl-pentanoylamino}-8-trifluoromethyl-2,3,4,9-tetrahydro-1H-carbazole-3-carboxylic acid {(S)-2-methyl-1-[(morpholin-4-ylmethyl)-carbamoyl]-butyl}-amide] | decrease | successfully prevented
5 | CCC(C)[C@H](NC(=O)Cc1ccccc1F)C(=O)N[C@]1(C(=O)N[C@H](C(=S)NCN2CCOCC2)C(C)CC)CCc2[nH]c3c(C(F)(F)F)cccc3c2C1 (stereo partly drawn) [Compound 37, (R)-3-{(S)-2-[2-(2-Fluoro-phenyl)-acetylamino]-3-methyl-pentanoylamino}-8-trifluoromethyl-2,3,4,9-tetrahydro-1H-carbazole-3-carboxylic acid {(S)-2-methyl-1-[(morpholin-4-ylmethyl)-thiocarbamoyl]-butyl}-amide] | decrease | successfully prevented
6 | CCC(C)[C@H](NC(=O)Cc1ccccc1F)C(=O)N[C@]1(C(=O)N[C@H](C(=O)NNc2ccccc2)C(C)CC)CCc2[nH]c3c(C(F)(F)F)cccc3c2C1 (stereo partly drawn) [Compound 144, (R)-3-{(S)-2-[2-(2-Fluoro-phenyl)-acetylamino]-3-methyl-pentanoylamino}-8-trifluoromethyl-2,3,4,9-tetrahydro-1H-carbazole-3-carboxylic acid [(S)-2-methyl-1-(N′-phenyl-hydrazinocarbonyl)-butyl]-amide] | decrease | successfully prevented
